# Measured values reported in patent publication EP1019392B1, “TRICYCLIC AMIDES USEFUL FOR INHIBITION OF G-PROTEIN FUNCTION AND FOR TREATMENT OF PROLIFERATIVE DISEASES” (SCHERING CORPORATION, priority 1995, dated 1997).
# Experiments:
# [1] = system: DLD-1-BAG human colon carcinoma cells expressing as activated K-ras gene; assay: Cell Mat Assay, DLD-1 tumor cells; assay type: cell-based; conditions: Homo sapiens, DLD-1, Mat assay
# [2] = system: T24-BAG4 human bladder carcinoma cells expressing an activated H-ras gene; assay: Cell Mat Assay, T24 tumor cells; assay type: cell-based; conditions: Homo sapiens, read-out: Tumor (T-24) IC50
# [3] = system: Human tumor cells; assay: Soft Agar Assay (anchorage-independent growth); assay type: cell-based; conditions: range over 19 tumor cell lines (K ras NIH 3T3, H ras NIH 3T3, HTB 177, HTB 173, A549, HTB 175, HTB 119, HTB 183, HPAF II, MCF-7, HBL100, Du4475, MDA MB 468, DU 145, MDA MB453, BT474, PC3, DLD I, AsPc-1), read-out: IC50 for each cell line
# [4] = system: Ras-CVLS processing in COS monkey kidney cells; assay: COS cell assay: inhibition of Ras-CVLS processing (Western blot); assay type: cell-based; conditions: Primates, COS
# [5] = system: DLD-1 (human colon carcinoma cells, ATCC # CCL 221); assay: In Vivo Anti-Tumor Studies, subcutaneous DLD-1 tumors; parameters: species or system athymic nu/nu female mice; conditions: Mus musculus, DLD-1, po, QID, 4 weeks, range over the listed compounds
# Text: Tumor cells (5 X 10^5 to 8 X 10^6) of DLD-1 (human colon carcinoma cells, ATCC # CCL 221) are innolculated subcutaneously into the flank of 5-6 week o;d athymic nu/nu female mice.
# [6] = system: Normal human HEPM fibroblasts; assay: Cell Mat Assay, normal cell mat; assay type: cell-based; conditions: normal monolayer
# [7] = system: SW620-BAG human colon carcinoma cells expressing an activated K-ras gene; assay: Cell Mat Assay, SW620 tumor cells; assay type: cell-based; conditions: Homo sapiens, SW-620, Mat assay
compound,measurement,setting,value
NC(=O)N1CCC(CC(=O)N2CCC(C3c4ncc(Br)cc4CCc4cc(Cl)cc(Br)c43)CC2)CC1 (centres unmarked) [Example 10],IC50,[1],< 1600 nM
same,IC50,[2],< 1600 nM
same,IC50,[3],40 to 3000 nM
same,IC50,[4],< 25 nM
same,inhibition in vivo at 10 mg/kg,[5]; 10 mg/kg p.o.,7 to 50%
same,inhibition in vivo at 50 mg/kg,[5]; 50 mg/kg p.o.,35.4 to 83%
same,IC50,[6],> 25000 nM
same,IC50,[7],3100 nM
